From patent publication US12065410B2, “Crystal forms of 2-[4-[(2,3,4-trimethoxyphenyl)methyl]piperazin-1-yl]ethyl pyridine-3-carboxylate” (IMBRIA PHARMACEUTICALS, INC., priority 2020, dated 2024)
≈ marks a conversion by molar mass, not a printed value. Each block holds one compound with its values, some of them ahead of it.

Tests used:
Type in all cases: physicochemical
[1] = Approximate solubility of starting material at RT by stepwise solvent addition; conditions: thermodynamic from solid
Method: Starting with Form A, polymorph screening experiments were set up under 34 conditions using methods of slurry conversion, liquid vapor diffusion, slow evaporation, and slow cooling. The approximate solubility of starting material was determined at room temperature (RT). Accurately weighed samples of approximately 2 mg weight were added into a 3-mL glass vial. Solvents were then added step wise (50/50/200/700 μL) into the vials until the solids were dissolved or a total volume of 1 mL was reached.

[2] = Dynamic vapor sorption (DVS) with XRPD before and after
Description: FIG. 8 is a dynamic vapor sorption isotherm plot. Cycle sorption is shown in red; cycle 1 desorption is shown in blue; and cycle 2 sorption is shown in green.
Pre-DVS data is shown in red; and post-DVS data is shown in blue.

[3] = Slurry conversion / water activity / slurry competition at RT, solids analysed by XRPD
Method: Slurry conversion experiments were conducted at RT in different solvent systems. Approximately 20 mg of starting material was suspended in 0.1 mL of solvent in HPLC vials. After the suspension was stirred magnetically for 48 hours at RT, the remaining solids were isolated for XRPD analysis.

[4] = Solid-form stability on heating, vacuum dehydration and re-exposure to ambient RH (XRPD)
Method: CV-8972 starting material is shown in blue; CV-8972 following incubation at 90° C. for 8 hours is shown in red; and CV-8972 following incubation at 65° C. in a vacuum for 2 hours is shown in purple. To see if the small DSC endotherm at 85.3° C. corresponds to polymorphic phase transition or dehydration, XRPD was performed on Form A after storing it in an oven at 90° C. for 8 hours.
Data from starting material is shown in blue; data following incubation for 2 hours in vacuum oven are shown in red; and data from heated material that was exposed to ambient relative humidity is shown in green. To monitor Form A in its dehydrated state, it was placed in a vacuum oven at 65° C. for 2 hours followed by its XRPD analysis.

solubility ([1]; CHCl3, organic solvent or mixture, CHCI3, RT): < 1800 µg/mL | solubility ([1]; organic solvent or mixture, 1,4-Dioxane, RT): < 1700 µg/mL | solubility ([1]; organic solvent or mixture, ACN, RT): < 1500 µg/mL | solubility ([1]; organic solvent or mixture, Acetone, RT): < 2000 µg/mL | solubility ([1]; organic solvent or mixture, CPME, RT): < 1500 µg/mL | solubility ([1]; organic solvent or mixture, DCM, RT): < 2200 µg/mL | solubility ([1]; organic solvent or mixture, DMF, RT): 1800 to 6000 µg/mL (≈ 4.33 to 14.4 mM) | solubility ([1]; organic solvent or mixture, DMSO, RT): 5000 to 15000 µg/mL (≈ 12 to 36.1 mM) | solubility ([1]; organic solvent or mixture, EtOAc, RT): < 1800 µg/mL | solubility ([1]; organic solvent or mixture, EtOH, RT): < 1700 µg/mL | solubility ([1]; organic solvent or mixture, IPA, RT): < 2300 µg/mL | solubility ([1]; organic solvent or mixture, IPAc, RT): < 1700 µg/mL | solubility ([1]; organic solvent or mixture, MEK, RT): < 2000 µg/mL | solubility ([1]; organic solvent or mixture, MIBK, RT): < 2000 µg/mL | solubility ([1]; organic solvent or mixture, MeOH, RT): > 46000 µg/mL | solubility ([1]; organic solvent or mixture, NMP, RT): 6700 to 20000 µg/mL (≈ 16.1 to 48.1 mM) | solubility ([1]; organic solvent or mixture, THF, RT): < 2200 µg/mL | solubility ([1]; organic solvent or mixture, Toluene, RT): < 2300 µg/mL | solubility ([1]; organic solvent or mixture, n-Heptane, RT): < 1900 µg/mL | solubility ([1]; water, H2O, RT): > 44000 µg/mL | Hygroscopicity (DVS) ([2]; 25° C., up to 80% RH): non hygroscopic | Solid Form after slurry conversion ([3]; Acetone, stirred 48 hours at RT): Form A | Solid Form after slurry conversion ([3]; Acetone/H2O (aw = 0.2, 941/59), 48 hours at RT): Form A | Solid Form after slurry conversion ([3]; Acetone/H2O (aw = 0.4, 857/143), 48 hours at RT): Form A | Solid Form after slurry conversion ([3]; Acetone/H2O (aw = 0.6, 726/274), 48 hours at RT): Form A | Solid Form after slurry conversion ([3]; Acetone/H2O (aw = 0.8, 492/508), 48 hours at RT): Form A | Solid Form after slurry conversion ([3]; H2O, 48 hours at RT): Form A | Relative stability among polymorphs ([3]; ambient temperature and relative humidity): most stable | Solid form after vacuum oven (XRPD) ([4]; 65° C. vacuum for 2 hours): Form E | Solid form after oven storage (XRPD) ([4]; 90° C. for 8 hours): converts to Form E
SMILES: COc1ccc(CN2CCN(CCOC(=O)c3cccnc3)CC2)c(OC)c1OC [Form A, 2-[4-[(2,3,4-trimethoxyphenyl)methyl]piperazin-1-yl]ethyl pyridine-3-carboxylate]

Solid form change in slurry competition between Forms D and E [3]: converted to Form A | Solid form change in water activity analysis ([3]; all conditions tested): converts to Form A | Solid form change on exposure to ambient temperature and humidity ([4]; ambient RH, rehydration): partial conversion to Form A
SMILES: COc1ccc(CN2CCN(CCOC(=O)c3cccnc3)CC2)c(OC)c1OC [Form E, 2-[4-[(2,3,4-trimethoxyphenyl)methyl]piperazin-1-yl]ethyl pyridine-3-carboxylate]

Water uptake (DVS) ([2]; 25° C. and 80% relative humidity (RH)): < 0.2% | Mass change (DVS) ([2]; beyond 80% RH, possible deliquescence): drastic increase in the mass change | XRPD of the sample after DVS ([2]; post-DVS versus pre-DVS): mostly similar to the starting material
SMILES: COc1ccc(CN2CCN(CCOC(=O)c3cccnc3)CC2)c(OC)c1OC [CV-8972, 2-[4-[(2,3,4-trimethoxyphenyl)methyl]piperazin-1-yl]ethyl pyridine-3-carboxylate]
